Measured values reported in patent publication US20260234131A1, “THERAPEUTIC ALKALOID COMPOUNDS” (Sensorium Therapeutics, Inc., priority 2023, published 2026).

Assays:
SERT = target: T1, SERT (Homo sapiens, UniProt P31645); assay: SERT inhibition assay (Neurotransmitter Transportation Fluorescence assay, stable 5HTT cells); assay type: cell-based; settings: for IC50 ratio to (−) mesembrine: SERT assay IC50 relative to (−) mesembrine; for IC50: stable 5HTT cells, 30 minutes at 37° C., fluorescence uptake kit, read-out: SERT Assay Potency Range
T1 construct: expressed in transfected cells
Protocol: SERT inhibition can be measured using a Neruotransmitter Transportation Fluorescence assay. Briefly, stable 5HTT cells were prepared in a 384 microwell plate. Compounds were prepared by in assay buffer (20 mM HEPES, 0.1% BSA). The compounds were added to the plated cells and incubated for 30 minutes at 37° C. 25 μL of dye solution (Molecular Devices Neurotransmitter Transporter Uptake Assay Kit) is added per well and incubated for 30 minutes at 37° C. The plates are then read on a plate reader.

[1] = pharmacokinetics described for (−) mesembrine; species not given; cited from earlier work

T1 sequence (P31645 whole entry, species assumed): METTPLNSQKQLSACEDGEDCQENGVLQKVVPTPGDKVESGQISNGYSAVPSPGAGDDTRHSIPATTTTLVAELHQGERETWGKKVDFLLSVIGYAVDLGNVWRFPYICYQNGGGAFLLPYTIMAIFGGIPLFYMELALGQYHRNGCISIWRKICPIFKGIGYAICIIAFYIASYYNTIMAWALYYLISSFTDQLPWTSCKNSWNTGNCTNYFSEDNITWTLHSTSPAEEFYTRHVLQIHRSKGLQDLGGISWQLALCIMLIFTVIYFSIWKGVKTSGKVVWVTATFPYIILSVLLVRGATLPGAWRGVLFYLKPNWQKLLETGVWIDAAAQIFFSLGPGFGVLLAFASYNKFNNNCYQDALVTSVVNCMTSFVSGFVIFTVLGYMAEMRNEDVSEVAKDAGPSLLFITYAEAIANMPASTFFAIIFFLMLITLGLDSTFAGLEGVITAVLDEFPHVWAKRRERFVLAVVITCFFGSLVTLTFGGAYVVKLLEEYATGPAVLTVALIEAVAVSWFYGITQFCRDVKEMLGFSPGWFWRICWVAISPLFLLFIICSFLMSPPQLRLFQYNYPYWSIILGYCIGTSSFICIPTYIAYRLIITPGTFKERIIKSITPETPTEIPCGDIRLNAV

Compound	IC50 ratio to (−) mesembrine (SERT)	IC50 (SERT) [nM]	half-life in plasma [1]
CN1CC[C@]2(c3ccc4c(c3)OC(F)(F)O4)CCC(=O)C[C@H]12 (single isomer, unassigned) [Compound 232]	<5	< 50	–
CN1CC[C@@]2(c3ccc4c(c3)OC(F)(F)O4)CCC(=O)C[C@@H]12 (single isomer, unassigned) [Compound 233]	≥100	500 to 1500	–
COc1ccc([C@@]23CCC(=O)C[C@@H]2N(C)CC3)cc1OC [Mesembrine]	–	–	less than 2 hours
